Measured values taken from patent publication US6875451B2, “Compositions and methods for the treatment of primary and metastatic neoplastic diseases using arsenic compounds” (PolaRx Biopharmaceuticals Inc., priority 1997, dated 2005).

Tests used:
Assay type in all cases: cell-based
K-562 = experiment: SRB growth assay, 6 days exposure, leukemia; conditions: K-562, 6 days
Description: (§1) Arsenic trioxide (1 mg/ml, 10 mg/ampoule, manufactured by Taylor Pharmaceuticals, Decatur, Ill.) was tested at five concentrations each at 10-fold dilutions, i.e., 10^−5, 10^−6, 10^−7, 10^−8 and 10^−9 μg/ml.
(§2) The in vitro tests were performed by incubating the test cells in the presence of the indicated concentration of arsenic trioxide under standard culture conditions for a designated period of time, which is followed by a sulforhodamine B (SRB) protein assay to estimate cell viability or growth. The cell lines are organized into subpanels according to the origin of the cell lines, e.g., leukemia, breast cancer, etc. A description of the cell lines and method of testing is described in Monk et al. (1997, Anticancer Drug Des. 12:533-41) and Weinstein et al., (1997, Science 275:343-9), which are incorporated herein in their entirety.
(§3) The measurement of an effect is expressed in Percentage Growth (PG). The measured effect of the compound on a cell line is calculated according to one or the other of the following two expressions: If (Mean ODtest−Mean ODzero)≧0. then PG=100×(Mean ODtest−Mean ODzero)/(Mean ODctrl−Mean ODzero) If (Mean ODtest−Mean ODzero)<0. then PG=100×(Mean ODtest−Mean ODzero)/(Mean ODzero where: • Mean ODzero=the average of optical density measurements of SRB-derived color just before exposure of cells to the test compounds; • Mean ODtest=the average of optical density measurements of SRB-derived color after exposure of cells to the test compound for a designated period of time; and • Mean ODctrl=the average of optical density measurements of SRB-derived color after with no exposure of cells to the test compound for a designated period of time
(§4) The first two columns describe the subpanel (e.g., leukemia) and cell line (e.g., CCRF-CEM) involved. The next two columns list the Mean ODzero and Mean ODctrl; the next five columns list the Mean ODtest for each of five different concentrations. Each concentration is expressed as the log10 (molar or μg/ml). The next five columns list the calculated PGs for each concentration. The response parameters GI50, TGI and LC50 are interpolated values representing the concentrations at which the PG is +50, 0, and −50, respectively. Sometimes these response parameters cannot be obtained by interpolation. If, for instance, all of the PGs in a given row exceed +50, then none of the three parameters can be obtained by interpolation. In such a case, the value given for each response parameter is the highest concentration tested and is preceded by a “>” sign. This practice is extended similarly to the other possible situations where a response parameter cannot be obtained by interpolation.
(§5) In the first set, the cells from 56 different cancer cell lines were exposed to five concentrations of arsenic trioxide continuously for two days prior to performing the SRB assay. In the second set, the cells from 50 different cell lines (a subset of the first 56 cell lines, plus the renal cancer cell line 786-0) were exposed continuously for six days prior to the SRB assay.

MOLT-4 = experiment: SRB growth assay, 6 days exposure, leukemia; conditions: MOLT-4, 6 days
Description: as §1, §2, §3, §4, §5

CCRF-CEM = experiment: SRB growth assay, 6 days exposure, leukemia
Description: as §1, §2, §3, §4, §5

RPMI-8226 = experiment: SRB growth assay, 6 days exposure, leukemia; conditions: RPMI-8226, 6 days
Description: as §1, §2, §3, §4, §5

SNB-19 = experiment: SRB growth assay, 2 days exposure, CNS cancer
Description: as §1, §2, §3, §4, §5

U251 = experiment: SRB growth assay, 2 days exposure, CNS cancer
Description: as §1, §2, §3, §4, §5

SF-295 = experiment: SRB growth assay, 2 days exposure, CNS cancer
Description: as §1, §2, §3, §4, §5

SF-539 = experiment: SRB growth assay, 2 days exposure, CNS cancer
Description: as §1, §2, §3, §4, §5

SNB-75 = experiment: SRB growth assay, 2 days exposure, CNS cancer
Description: as §1, §2, §3, §4, §5

SF-268 = experiment: SRB growth assay, 2 days exposure, CNS cancer
Description: as §1, §2, §3, §4, §5

[1] = read-out: LC50 (the source's name)

arsenic trioxide
TGI (K-562): >1.26E−05
Mean Optical Densities (K-562; Log 10 Concentration −4.9): 0.096
Percent Growth (K-562; Log 10 Concentration −4.9): 2%
Mean Optical Densities (K-562; Log 10 Concentration −5.9): 2.931
Percent Growth (K-562; Log 10 Concentration −5.9): 97%
Mean Optical Densities (K-562; Log 10 Concentration −6.9): 3.360
Percent Growth (K-562; Log 10 Concentration −6.9): 112%
Mean Optical Densities (K-562; Log 10 Concentration −7.9): 2.992
Percent Growth (K-562; Log 10 Concentration −7.9): 99%
Mean Optical Densities (K-562; Log 10 Concentration −8.9): 3.042
Percent Growth (K-562; Log 10 Concentration −8.9): 101%
CC50 (K-562; [1]): > 12.6 µM
TGI (MOLT-4): >1.26E−05
Mean Optical Densities (MOLT-4; Log 10 Concentration −4.9): 0.113
Percent Growth (MOLT-4; Log 10 Concentration −4.9): 20%
Mean Optical Densities (MOLT-4; Log 10 Concentration −5.9): 0.245
Percent Growth (MOLT-4; Log 10 Concentration −5.9): 47%
Mean Optical Densities (MOLT-4; Log 10 Concentration −6.9): 0.432
Percent Growth (MOLT-4; Log 10 Concentration −6.9): 85%
Mean Optical Densities (MOLT-4; Log 10 Concentration −7.9): 0.228
Percent Growth (MOLT-4; Log 10 Concentration −7.9): 43%
Mean Optical Densities (MOLT-4; Log 10 Concentration −8.9): 0.554
Percent Growth (MOLT-4; Log 10 Concentration −8.9): 111%
TGI (CCRF-CEM): >1.26E−05
Mean Optical Densities (CCRF-CEM; Log 10 Concentration −4.9): 0.048
Percent Growth (CCRF-CEM; Log 10 Concentration −4.9): 0%
Mean Optical Densities (CCRF-CEM; Log 10 Concentration −5.9): 0.320
Percent Growth (CCRF-CEM; Log 10 Concentration −5.9): 8%
Mean Optical Densities (CCRF-CEM; Log 10 Concentration −6.9): 3.051
Percent Growth (CCRF-CEM; Log 10 Concentration −6.9): 87%
Mean Optical Densities (CCRF-CEM; Log 10 Concentration −7.9): 3.592
Percent Growth (CCRF-CEM; Log 10 Concentration −7.9): 102%
Mean Optical Densities (CCRF-CEM; Log 10 Concentration −8.9): 3.601
Percent Growth (CCRF-CEM; Log 10 Concentration −8.9): 103%
CC50 (CCRF-CEM; [1]): > 12.6 µM
Mean Optical Densities (RPMI-8226; Log 10 Concentration −4.9): 0.065
Percent Growth (RPMI-8226; Log 10 Concentration −4.9): −2%
Mean Optical Densities (RPMI-8226; Log 10 Concentration −5.9): 0.368
Percent Growth (RPMI-8226; Log 10 Concentration −5.9): 22%
Mean Optical Densities (RPMI-8226; Log 10 Concentration −6.9): 1.423
Percent Growth (RPMI-8226; Log 10 Concentration −6.9): 99%
Mean Optical Densities (RPMI-8226; Log 10 Concentration −7.9): 1.263
Percent Growth (RPMI-8226; Log 10 Concentration −7.9): 88%
Mean Optical Densities (RPMI-8226; Log 10 Concentration −8.9): 1.607
Percent Growth (RPMI-8226; Log 10 Concentration −8.9): 113%
CC50 (RPMI-8226; [1]): > 12.6 µM
TGI (SNB-19): >0.0126 ng/mL
Percent Growth (SNB-19; log10 conc −4.9): 36%
Percent Growth (SNB-19; log10 conc −5.9): 97%
Percent Growth (SNB-19; log10 conc −6.9): 98%
Percent Growth (SNB-19; log10 conc −7.9): 97%
Percent Growth (SNB-19; log10 conc −8.9): 93%
TGI (U251): 0.00437 ng/mL
Percent Growth (U251; log10 conc −4.9): −68%
Percent Growth (U251; log10 conc −5.9): 80%
Percent Growth (U251; log10 conc −6.9): 101%
Percent Growth (U251; log10 conc −7.9): 99%
Percent Growth (U251; log10 conc −8.9): 98%
TGI (SF-295): >0.0126 ng/mL
Percent Growth (SF-295; log10 conc −4.9): 51%
Percent Growth (SF-295; log10 conc −5.9): 91%
Percent Growth (SF-295; log10 conc −6.9): 91%
Percent Growth (SF-295; log10 conc −7.9): 96%
Percent Growth (SF-295; log10 conc −8.9): 93%
TGI (SF-539): 0.00885 ng/mL
Percent Growth (SF-539; log10 conc −4.9): −17%
Percent Growth (SF-539; log10 conc −5.9): 92%
Percent Growth (SF-539; log10 conc −6.9): 113%
Percent Growth (SF-539; log10 conc −7.9): 117%
Percent Growth (SF-539; log10 conc −8.9): 109%
TGI (SNB-75): 0.00698 ng/mL
Percent Growth (SNB-75; log10 conc −4.9): −17%
Percent Growth (SNB-75; log10 conc −5.9): 37%
Percent Growth (SNB-75; log10 conc −6.9): 115%
Percent Growth (SNB-75; log10 conc −7.9): 100%
Percent Growth (SNB-75; log10 conc −8.9): 77%
TGI (SF-268): >0.0126 ng/mL
Percent Growth (SF-268; log10 conc −4.9): 23%
Percent Growth (SF-268; log10 conc −5.9): 100%
Percent Growth (SF-268; log10 conc −6.9): 108%
Percent Growth (SF-268; log10 conc −7.9): 94%
Percent Growth (SF-268; log10 conc −8.9): 110%
